Results from PubChem BioAssay AID1259407 (Chemical Carcinogenesis Research Information System (CCRIS), 2018).
Calls of active or inactive are those of the source. How the calls were made is not given here.

Test system: CCRIS mutagenicity, Ames/micronucleus/aberration tests
Experiment: CCRIS mutagenicity studies

SMILES: C=CC(=O)O
- mutagenic call (Test System: AMES SALMONELLA TYPHIMURIUM, Strain/Indicator: TA97, Metabolic Activation: NONE, Method: PREINCUBATION): inactive; negative
- mutagenic call (Test System: AMES SALMONELLA TYPHIMURIUM, Strain/Indicator: TA97, Metabolic Activation: S-9, Method: PREINCUBATION): inactive; negative
- mutagenic call (Test System: AMES SALMONELLA TYPHIMURIUM, Strain/Indicator: TA98, Metabolic Activation: HAMSTER, LIVER, S-9, AROCLOR 1254 (10%), Method: PREINCUBATION): inactive; negative
- mutagenic call (Test System: AMES SALMONELLA TYPHIMURIUM, Strain/Indicator: TA98, Metabolic Activation: HAMSTER, LIVER, S-9, AROCLOR 1254, Method: STANDARD PLATE): inactive; negative
- mutagenic call (Test System: AMES SALMONELLA TYPHIMURIUM, Strain/Indicator: TA98, Metabolic Activation: NONE, Method: PREINCUBATION): inactive; negative
- mutagenic call (Test System: AMES SALMONELLA TYPHIMURIUM, Strain/Indicator: TA98, Metabolic Activation: NONE, Method: STANDARD PLATE): inactive; negative
- mutagenic call (Test System: AMES SALMONELLA TYPHIMURIUM, Strain/Indicator: TA98, Metabolic Activation: RAT LIVER S-9, PHENOBARBITAL AND BETA-NAPHTHOFLAVONE, Method: PREINCUBATION): inactive; negative
- mutagenic call (Test System: AMES SALMONELLA TYPHIMURIUM, Strain/Indicator: TA98, Metabolic Activation: RAT, LIVER, S-9, AROCLOR 1254 (10%), Method: PREINCUBATION): inactive; negative
- mutagenic call (Test System: AMES SALMONELLA TYPHIMURIUM, Strain/Indicator: TA98, Metabolic Activation: RAT, LIVER, S-9, AROCLOR 1254, Method: STANDARD PLATE): inactive; negative
- mutagenic call (Test System: AMES SALMONELLA TYPHIMURIUM, Strain/Indicator: TA98, Metabolic Activation: RAT, LIVER, S-9, AROCLOR, Method: STANDARD PLATE): inactive; negative
- mutagenic call (Test System: AMES SALMONELLA TYPHIMURIUM, Strain/Indicator: TA100, Metabolic Activation: HAMSTER, LIVER, S-9, AROCLOR 1254 (10%), Method: PREINCUBATION): inactive; negative
- mutagenic call (Test System: AMES SALMONELLA TYPHIMURIUM, Strain/Indicator: TA100, Metabolic Activation: HAMSTER, LIVER, S-9, AROCLOR 1254, Method: STANDARD PLATE): inactive; negative
- mutagenic call (Test System: AMES SALMONELLA TYPHIMURIUM, Strain/Indicator: TA100, Metabolic Activation: NONE, Method: PREINCUBATION): inactive; negative
- mutagenic call (Test System: AMES SALMONELLA TYPHIMURIUM, Strain/Indicator: TA100, Metabolic Activation: NONE, Method: STANDARD PLATE): inactive; negative
- mutagenic call (Test System: AMES SALMONELLA TYPHIMURIUM, Strain/Indicator: TA100, Metabolic Activation: RAT LIVER S-9, PHENOBARBITAL AND BETA-NAPHTHOFLAVONE, Method: PREINCUBATION): inactive; negative
- mutagenic call (Test System: AMES SALMONELLA TYPHIMURIUM, Strain/Indicator: TA100, Metabolic Activation: RAT, LIVER, S-9, AROCLOR 1254 (10%), Method: PREINCUBATION): inactive; negative
- mutagenic call (Test System: AMES SALMONELLA TYPHIMURIUM, Strain/Indicator: TA100, Metabolic Activation: RAT, LIVER, S-9, AROCLOR 1254, Method: STANDARD PLATE): inactive; negative
- mutagenic call (Test System: AMES SALMONELLA TYPHIMURIUM, Strain/Indicator: TA100, Metabolic Activation: RAT, LIVER, S-9, AROCLOR, Method: STANDARD PLATE): inactive; negative
- mutagenic call (Test System: AMES SALMONELLA TYPHIMURIUM, Strain/Indicator: TA102, Metabolic Activation: NONE, Method: PREINCUBATION): inactive; negative
- mutagenic call (Test System: AMES SALMONELLA TYPHIMURIUM, Strain/Indicator: TA102, Metabolic Activation: RAT LIVER S-9, PHENOBARBITAL AND BETA-NAPHTHOFLAVONE, Method: PREINCUBATION): inactive; negative
- mutagenic call (Test System: AMES SALMONELLA TYPHIMURIUM, Strain/Indicator: TA102, Metabolic Activation: S-9, Method: PREINCUBATION): inactive; negative
- mutagenic call (Test System: AMES SALMONELLA TYPHIMURIUM, Strain/Indicator: TA104, Metabolic Activation: NONE, Method: PREINCUBATION): inactive; negative
- mutagenic call (Test System: AMES SALMONELLA TYPHIMURIUM, Strain/Indicator: TA104, Metabolic Activation: RAT LIVER S-9, PHENOBARBITAL AND BETA-NAPHTHOFLAVONE, Method: PREINCUBATION): inactive; negative
- mutagenic call (Test System: AMES SALMONELLA TYPHIMURIUM, Strain/Indicator: TA1535, Metabolic Activation: HAMSTER, LIVER, S-9, AROCLOR 1254 (10%), Method: PREINCUBATION): inactive; negative
- mutagenic call (Test System: AMES SALMONELLA TYPHIMURIUM, Strain/Indicator: TA1535, Metabolic Activation: HAMSTER, LIVER, S-9, AROCLOR 1254, Method: STANDARD PLATE): inactive; negative
- mutagenic call (Test System: AMES SALMONELLA TYPHIMURIUM, Strain/Indicator: TA1535, Metabolic Activation: NONE, Method: PREINCUBATION): inactive; negative
- mutagenic call (Test System: AMES SALMONELLA TYPHIMURIUM, Strain/Indicator: TA1535, Metabolic Activation: NONE, Method: STANDARD PLATE): inactive; negative
- mutagenic call (Test System: AMES SALMONELLA TYPHIMURIUM, Strain/Indicator: TA1535, Metabolic Activation: RAT LIVER S-9, PHENOBARBITAL AND BETA-NAPHTHOFLAVONE, Method: PREINCUBATION): inactive; negative
- mutagenic call (Test System: AMES SALMONELLA TYPHIMURIUM, Strain/Indicator: TA1535, Metabolic Activation: RAT, LIVER, S-9, AROCLOR 1254 (10%), Method: PREINCUBATION): inactive; negative
- mutagenic call (Test System: AMES SALMONELLA TYPHIMURIUM, Strain/Indicator: TA1535, Metabolic Activation: RAT, LIVER, S-9, AROCLOR 1254, Method: STANDARD PLATE): inactive; negative
- mutagenic call (Test System: AMES SALMONELLA TYPHIMURIUM, Strain/Indicator: TA1535, Metabolic Activation: RAT, LIVER, S-9, AROCLOR, Method: STANDARD PLATE): inactive; negative
- mutagenic call (Test System: AMES SALMONELLA TYPHIMURIUM, Strain/Indicator: TA1537, Metabolic Activation: HAMSTER, LIVER, S-9, AROCLOR 1254 (10%), Method: PREINCUBATION): inactive; negative
- mutagenic call (Test System: AMES SALMONELLA TYPHIMURIUM, Strain/Indicator: TA1537, Metabolic Activation: HAMSTER, LIVER, S-9, AROCLOR 1254, Method: STANDARD PLATE): inactive; negative
- mutagenic call (Test System: AMES SALMONELLA TYPHIMURIUM, Strain/Indicator: TA1537, Metabolic Activation: NONE, Method: PREINCUBATION): inactive; negative
- mutagenic call (Test System: AMES SALMONELLA TYPHIMURIUM, Strain/Indicator: TA1537, Metabolic Activation: NONE, Method: STANDARD PLATE): inactive; negative
- mutagenic call (Test System: AMES SALMONELLA TYPHIMURIUM, Strain/Indicator: TA1537, Metabolic Activation: RAT LIVER S-9, PHENOBARBITAL AND BETA-NAPHTHOFLAVONE, Method: PREINCUBATION): inactive; negative
- mutagenic call (Test System: AMES SALMONELLA TYPHIMURIUM, Strain/Indicator: TA1537, Metabolic Activation: RAT, LIVER, S-9, AROCLOR 1254 (10%), Method: PREINCUBATION): inactive; negative
- mutagenic call (Test System: AMES SALMONELLA TYPHIMURIUM, Strain/Indicator: TA1537, Metabolic Activation: RAT, LIVER, S-9, AROCLOR 1254, Method: STANDARD PLATE): inactive; negative
- mutagenic call (Test System: AMES SALMONELLA TYPHIMURIUM, Strain/Indicator: TA1537, Metabolic Activation: RAT, LIVER, S-9, AROCLOR, Method: STANDARD PLATE): inactive; negative
- mutagenic call (Test System: AMES SALMONELLA TYPHIMURIUM, Strain/Indicator: TA1538, Metabolic Activation: HAMSTER, LIVER, S-9, AROCLOR 1254, Method: STANDARD PLATE): inactive; negative
- mutagenic call (Test System: AMES SALMONELLA TYPHIMURIUM, Strain/Indicator: TA1538, Metabolic Activation: NONE, Method: STANDARD PLATE): inactive; negative
- mutagenic call (Test System: AMES SALMONELLA TYPHIMURIUM, Strain/Indicator: TA1538, Metabolic Activation: RAT, LIVER, S-9, AROCLOR 1254, Method: STANDARD PLATE): inactive; negative
- mutagenic call (Test System: AMES SALMONELLA TYPHIMURIUM, Strain/Indicator: TA1538, Metabolic Activation: RAT, LIVER, S-9, AROCLOR, Method: STANDARD PLATE): inactive; negative
- mutagenic call (Test System: CHINESE HAMSTER OVARY, Strain/Indicator: CHO-K1-BH4 (HGPRT), Metabolic Activation: NONE): inactive; negative
- mutagenic call (Test System: CHINESE HAMSTER OVARY, Strain/Indicator: CHO-K1-BH4 (HGPRT), Metabolic Activation: RAT, LIVER, S-9, AROCLOR 1254): inactive; negative
- mutagenic call (Test System: E.COLI, Strain/Indicator: WP2UVRA/PKM101, Metabolic Activation: NONE, Method: PREINCUBATION): inactive; negative
- mutagenic call (Test System: E.COLI, Strain/Indicator: WP2UVRA/PKM101, Metabolic Activation: RAT LIVER S-9, PHENOBARBITAL AND BETA-NAPHTHOFLAVONE, Method: PREINCUBATION): inactive; negative
- mutagenic call (Test System: E.COLI, Strain/Indicator: WP2UVRA, Metabolic Activation: NONE, Method: PREINCUBATION): inactive; negative
- mutagenic call (Test System: E.COLI, Strain/Indicator: WP2UVRA, Metabolic Activation: RAT LIVER S-9, PHENOBARBITAL AND BETA-NAPHTHOFLAVONE, Method: PREINCUBATION): inactive; negative
- mutagenic call (Test System: MOUSE LYMPHOMA, Strain/Indicator: L5178Y (TK+/TK-), Metabolic Activation: RAT, LIVER, S-9, AROCLOR 1254, Method: SUSPENSION /PLATE): active; positive
- mutagenic call (Test System: MOUSE LYMPHOMA, Strain/Indicator: L5178Y (TK+/TK-), Metabolic Activation: RAT, LIVER, S-9, AROCLOR 1254, Method: SUSPENSION/PLATE): active; positive. reevaluation of results: positive
- mutagenic call (Test System: MOUSE LYMPHOMA, Strain/Indicator: L5178Y (TK+/TK-), Metabolic Activation: RAT, LIVER, S-9, AROCLOR, Method: SUSPENSION/PLATE): inactive; negative
- mutagenic call (Test System: UDS RAT HEPATOCYTES, Strain/Indicator: THY INCORP, Metabolic Activation: NONE, Method: AUTORADIOGRAPHY): inactive; negative
- mutagenic call (Test System: UDS RODENT CELLS, Strain/Indicator: SHE CELL-MEDIATED, Metabolic Activation: NONE, Method: LIQUID SCINTILLATION COUNTING (THYMIDINE INCORPORATION)): inactive; negative
- mutagenic call (Test System: UDS RODENT HEPATOCYTES, Strain/Indicator: THY INCORP (NON-S-PHASE), Metabolic Activation: NONE, Method: AUTORADIOGRAPHY): inactive; negative
